Laboratory results published in patent US20250186437A1, “CARBOLINE COMPOUNDS AND USE THEREOF” (PTC Therapeutics, Inc., priority 2021, published 2025).

system: MOLM-13 cells; test: MOLM-13 Cell Proliferation Assay (indicator of DHODH inhibition); format: cell-based; conditions: Homo sapiens, 72 Hours of culture, CellTiter-Glo, no uridine
Outline: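 Low-passage MOLM-13 cells (10^4/well) in RPMI 1640 + 10% FBS exposed to compound (0.5% DMSO final) for 72 h at 37 °C, 5% CO2. Viability read by CellTiter-Glo luminescence; growth reflects de novo pyrimidine synthesis dependent on DHODH.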

| SMILES | IC50 |
| --- | --- |
| N#Cc1ccc(C2c3[nH]c4cc(F)c(Cl)cc4c3CCN2c2ncc(F)cn2)cc1 (stereo not drawn) [Compound 32, 4-[6-chloro-7-fluoro-2-(5-fluoropyrimidin-2-yl)-2,3,4,9-tetrahydro-1H-pyrido[3,4-b]indol-1-yl]benzonitrile] | 49.2 nM |
| FC(F)(F)c1ccnc(N2CCc3c([nH]c4ccc(Cl)cc34)C2c2ccc(N3C[C@H]4C[C@@H]3CO4)nc2)n1 (stereo partly drawn) [Compound 373, 6-chloro-1-{6-[(1R,4R)-2-oxa-5-azabicyclo[2.2.1]heptan-5-yl]pyridin-3-yl}-2-[4-(trifluoromethyl)pyrimidin-2-yl]-2,3,4,9-tetrahydro-1H-pyrido[3,4-b]indole] | 4.6 nM |
| N#Cc1nc(N2CCc3c([nH]c4cc(F)c(Cl)cc34)C2c2cccc(F)c2F)ncc1F (stereo not drawn) [Compound 183, 2-[6-chloro-1-(2,3-difluorophenyl)-7-fluoro-1,3,4,9-tetrahydro-2H-pyrido[3,4-b]indol-2-yl]-5-fluoropyrimidine-4-carbonitrile] | 4.5 nM |
| Fc1cc2[nH]c3c(c2cc1Cl)CCN(c1ncc(Cl)cn1)C3c1ccc(Cl)cc1 (stereo not drawn) [Compound 29, 6-chloro-1-(4-chlorophenyl)-2-(5-chloropyrimidin-2-yl)-7-fluoro-2,3,4,9-tetrahydro-1H-pyrido[3,4-b]indole] | 39.1 nM |
| CN(C)c1ccc(C2c3[nH]c4ccc(Cl)c(F)c4c3CCN2c2nccc(C(F)(F)F)n2)cn1 (stereo not drawn) [Compound 177, 5-{6-chloro-5-fluoro-2-[4-(trifluoromethyl)pyrimidin-2-yl]-2,3,4,9-tetrahydro-1H-pyrido[3,4-b]indol-1-yl}-N,N-dimethylpyridin-2-amine] | 3.9 nM |
| O=[N+]([O-])c1c(Cl)ccc2[nH]c3c(c12)CCN(c1nccc(C(F)(F)F)n1)C3c1cnc(N2CCOCC2)nc1 (stereo not drawn) [Compound 326, 6-chloro-1-[2-(morpholin-4-yl)pyrimidin-5-yl]-5-nitro-2-[4-(trifluoromethyl)pyrimidin-2-yl]-2,3,4,9-tetrahydro-1H-pyrido[3,4-b]indole] | 29.7 nM |
| N#Cc1ccc(C2c3[nH]c4cc(F)c(Cl)cc4c3CCN2c2nccc(C(F)(F)F)n2)cc1 (stereo not drawn) [Compound 100, 4-{6-chloro-7-fluoro-2-[4-(trifluoromethyl)pyrimidin-2-yl]-2,3,4,9-tetrahydro-1H-pyrido[3,4-b]indol-1-yl}benzonitrile] | 6.4 nM |
| Cc1ccc(C2c3[nH]c4cc(F)c(Cl)cc4c3CCN2c2ncc(F)c(C#N)n2)c(F)c1F (stereo not drawn) [Compound 162, 2-[6-chloro-1-(2,3-difluoro-4-methylphenyl)-7-fluoro-1,3,4,9-tetrahydro-2H-pyrido[3,4-b]indol-2-yl]-5-fluoropyrimidine-4-carbonitrile] | 2.4 nM |
| Cc1ccc([C@H]2c3[nH]c4ccc(Cl)cc4c3CCN2c2nc(C)c(F)c(C)n2)c(F)c1F [Compound 412, (1S)-6-chloro-1-(2,3-difluoro-4-methylphenyl)-2-(5-fluoro-4,6-dimethylpyrimidin-2-yl)-2,3,4,9-tetrahydro-1H-pyrido[3,4-b]indole] | 1 nM |
| Cc1nc(C)nc(N2CCc3c([nH]c4ccc(Cl)cc34)C2c2ccc(N3C[C@H]4C[C@@H]3CO4)nc2)n1 (stereo partly drawn) [Compound 376, 6-chloro-2-(4,6-dimethyl-1,3,5-triazin-2-yl)-1-{6-[(1R,4R)-2-oxa-5-azabicyclo[2.2.1]heptan-5-yl]pyridin-3-yl}-2,3,4,9-tetrahydro-1H-pyrido[3,4-b]indole] | 33.2 nM |
| Cc1ccc(C2c3[nH]c4ccc(Cl)cc4c3CCN2c2ncc(F)cn2)c(F)c1F (stereo not drawn) [Compound 401, 6-chloro-1-(2,3-difluoro-4-methylphenyl)-2-(5-fluoropyrimidin-2-yl)-2,3,4,9-tetrahydro-1H-pyrido[3,4-b]indole] | 3.2 nM |
| Cc1ccc(C2c3[nH]c4ccc(Cl)c(F)c4c3CCN2c2ncc(C)cn2)cc1 (stereo not drawn) [Compound 135, 6-chloro-5-fluoro-1-(4-methylphenyl)-2-(5-methylpyrimidin-2-yl)-2,3,4,9-tetrahydro-1H-pyrido[3,4-b]indole] | 10.2 nM |
| Cc1ccc(C2c3[nH]c4ccc(Cl)cc4c3CCN2c2ncc(F)c(C)n2)c(F)c1F (stereo not drawn) [Compound 235, 6-chloro-1-(2,3-difluoro-4-methylphenyl)-2-(5-fluoro-4-methylpyrimidin-2-yl)-2,3,4,9-tetrahydro-1H-pyrido[3,4-b]indole] | 1.5 nM |
| Fc1cncc(C2c3[nH]c4cc(F)c(Cl)cc4c3CCN2c2nccc(C(F)(F)F)n2)c1 (stereo not drawn) [Compound 145, 6-chloro-7-fluoro-1-(5-fluoropyridin-3-yl)-2-[4-(trifluoromethyl)pyrimidin-2-yl]-2,3,4,9-tetrahydro-1H-pyrido[3,4-b]indole] | 17.2 nM |
| Fc1c(Cl)ccc2[nH]c3c(c12)CCN(c1nccc(C(F)(F)F)n1)C3c1cncnc1 (stereo not drawn) [Compound 191, 6-chloro-5-fluoro-1-(pyrimidin-5-yl)-2-[4-(trifluoromethyl)pyrimidin-2-yl]-2,3,4,9-tetrahydro-1H-pyrido[3,4-b]indole] | 20.7 nM |
| Fc1cc2[nH]c3c(c2cc1Cl)CCN(c1nccc(Cl)n1)C3c1ccc(Cl)cc1 (stereo not drawn) [Compound 39, 6-chloro-1-(4-chlorophenyl)-2-(4-chloropyrimidin-2-yl)-7-fluoro-2,3,4,9-tetrahydro-1H-pyrido[3,4-b]indole] | 10.3 nM |
| Fc1nc(N2CCOCC2)ccc1C1c2[nH]c3ccc(Cl)cc3c2CCN1c1nccc(C(F)(F)F)n1 (stereo not drawn) [Compound 432, 6-chloro-1-[2-fluoro-6-(morpholin-4-yl)pyridin-3-yl]-2-[4-(trifluoromethyl)pyrimidin-2-yl]-2,3,4,9-tetrahydro-1H-pyrido[3,4-b]indole] | 1.6 nM |
| Cc1ccc(C2c3[nH]c4ccc(Cl)c(F)c4c3CCN2c2nc(C(F)(F)F)cc(C(F)(F)F)n2)c(F)c1F (stereo not drawn) [Compound 209, 2-[4,6-bis(trifluoromethyl)pyrimidin-2-yl]-6-chloro-1-(2,3-difluoro-4-methylphenyl)-5-fluoro-2,3,4,9-tetrahydro-1H-pyrido[3,4-b]indole] | 0.8 nM |
| FC(F)(F)c1cc(C(F)(F)F)nc(N2CCc3c([nH]c4ccc(-n5nccn5)cc34)[C@@H]2c2cnc(N3CCOCC3)nc2)n1 [Compound 514, (1S)-2-[4,6-bis(trifluoromethyl)pyrimidin-2-yl]-1-[2-(morpholin-4-yl)pyrimidin-5-yl]-6-(2H-1,2,3-triazol-2-yl)-2,3,4,9-tetrahydro-1H-pyrido[3,4-b]indole] | 0.6 nM |
| Cc1cc(C#N)nc(N2CCc3c([nH]c4ccc(Cl)c(F)c34)C2c2ccc(C)c(F)c2F)n1 (stereo not drawn) [Compound 232, 2-[6-chloro-1-(2,3-difluoro-4-methylphenyl)-5-fluoro-1,3,4,9-tetrahydro-2H-pyrido[3,4-b]indol-2-yl]-6-methylpyrimidine-4-carbonitrile] | 0.5 nM |
| Fc1cnc(N2CCc3c([nH]c4cc(F)c(Cl)cc34)C2c2ccc(Cl)cc2)nc1 (stereo not drawn) [Compound 11, 6-chloro-1-(4-chlorophenyl)-7-fluoro-2-(5-fluoropyrimidin-2-yl)-2,3,4,9-tetrahydro-1H-pyrido[3,4-b]indole] | 35.4 nM |
| Cc1cc(C(F)(F)F)nc(N2CCc3c([nH]c4cc(F)c(Cl)cc34)C2c2ccc(C)c(F)c2F)n1 (stereo not drawn) [Compound 148, 6-chloro-1-(2,3-difluoro-4-methylphenyl)-7-fluoro-2-[4-methyl-6-(trifluoromethyl)pyrimidin-2-yl]-2,3,4,9-tetrahydro-1H-pyrido[3,4-b]indole] | 0.9 nM |
| Cc1ccc([C@H]2c3[nH]c4ccc(Cl)cc4c3CCN2c2nc(C#N)cc(C(F)(F)F)n2)c(F)c1F [Compound 416, 2-[(1S)-6-chloro-1-(2,3-difluoro-4-methylphenyl)-1,3,4,9-tetrahydro-2H-pyrido[3,4-b]indol-2-yl]-6-(trifluoromethyl)pyrimidine-4-carbonitrile] | 2.7 nM |
| Cc1ccc([C@H]2c3[nH]c4ccc(Cl)cc4c3CCN2c2nc(C)c(F)c(C#N)n2)cc1 [Compound 417, 2-[(1S)-6-chloro-1-(4-methylphenyl)-1,3,4,9-tetrahydro-2H-pyrido[3,4-b]indol-2-yl]-5-fluoro-6-methylpyrimidine-4-carbonitrile] | 1.9 nM |
| Fc1ccc(C2c3[nH]c4cc(F)c(Cl)cc4c3CCN2c2nccc(Cl)n2)cc1 (stereo not drawn) [Compound 15, 6-chloro-2-(4-chloropyrimidin-2-yl)-7-fluoro-1-(4-fluorophenyl)-2,3,4,9-tetrahydro-1H-pyrido[3,4-b]indole] | 32.6 nM |
| Cc1ccc(C2c3[nH]c4cc(F)c(Cl)cc4c3CCN2c2nccc(C#N)n2)c(F)c1F (stereo not drawn) [Compound 141, 2-[6-chloro-1-(2,3-difluoro-4-methylphenyl)-7-fluoro-1,3,4,9-tetrahydro-2H-pyrido[3,4-b]indol-2-yl]pyrimidine-4-carbonitrile] | 8.7 nM |
| Cc1nc(N2CC(F)(F)C2)nc(N2CCc3c([nH]c4ccc(Cl)cc34)[C@@H]2c2cnc(N3CCOCC3)nc2)n1 [Compound 457, (1S)-6-chloro-2-[4-(3,3-difluoroazetidin-1-yl)-6-methyl-1,3,5-triazin-2-yl]-1-[2-(morpholin-4-yl)pyrimidin-5-yl]-2,3,4,9-tetrahydro-1H-pyrido[3,4-b]indole] | 5.8 nM |
| FC(F)(F)c1ccnc(N2CCc3c([nH]c4ccc(Cl)cc34)C2c2ccc(N3CCOCC3)nc2)n1 (stereo not drawn) [Compound 303, 6-chloro-1-[6-(morpholin-4-yl)pyridin-3-yl]-2-[4-(trifluoromethyl)pyrimidin-2-yl]-2,3,4,9-tetrahydro-1H-pyrido[3,4-b]indole] | 2.5 nM |
| Cc1ccc(C2c3[nH]c4cc(F)c(Cl)cc4c3CCN2c2ncc(C)cn2)cc1 (stereo not drawn) [Compound 134, 6-chloro-7-fluoro-1-(4-methylphenyl)-2-(5-methylpyrimidin-2-yl)-2,3,4,9-tetrahydro-1H-pyrido[3,4-b]indole] | 21.7 nM |
| Cc1ccc([C@H]2c3[nH]c4ccc(Br)cc4c3CCN2c2nc(C(F)(F)F)nc(C(F)(F)F)n2)c(F)c1F [Compound 523, (1S)-2-[4,6-bis(trifluoromethyl)-1,3,5-triazin-2-yl]-6-bromo-1-(2,3-difluoro-4-methylphenyl)-2,3,4,9-tetrahydro-1H-pyrido[3,4-b]indole] | 0.6 nM |
